Experimental data taken from US8586542B2, “Small molecule apoptosis promoters” (Joyant Pharmaceuticals, Inc., priority 2006, dated 2013).

Legend:
[1] = molecular target: T1, truncated XIAP containing only BIR1, BIR2, and BIR3 domains (Homo sapiens, UniProt P98170); experiment: Fluorescent polarization assay (Bir binding); conditions: competition with 2 nM fluorescein labeled AVPI peptide, room temperature, 1 hour
T1 construct: truncated XIAP containing only BIR1, BIR2, and BIR3 domains
Description: Increasing concentrations of Smac compounds are incubated with 2 nM of labeled peptide (fluorescein labeled 10 mer peptide with AVPI 4 amino acids at its N terminus-Alexa Fluor 488) and truncated XIAP containing only BIR1, BIR2, and BIR3 domains at room temperature for 1 hour. Fluorescence reading, indicative of the bound portion of the labeled peptide, is measured in milipolarization units (mP). The more compound added, less fluorescein labeled peptide bind to the protein due to the competitive binding and less fluorescence signal is released.
Based on this principle, we obtain the Ki value that evaluates compound's binding affinity.

[2] = tested on: HCC461 cells; experiment: Cell viability assay in HCC461 cells (WST-1); type: cell-based; conditions: HCC461; 48 hrs incubation, WST-1 viability; read-out: HCC461 cell
Description: HCC461 cells plated in 96 well plates at 5×10^4/ml cell density are treated with 50× synthetic Smac mimetic compounds (final concentration range between 30 uM and 0.001 uM). After 48 hrs incubation at 37° C. and 5% CO2, viability of the cells are measured using Cell Proliferation Reagent WST-1 assay kit (Roche Cat #11 644 807 001).
The tetrazolium salts are cleaved to formazan by cellular enzymes. An expansion in the number of viable cells results in an increase in the overall activity of mitochondrial dehydrogenases in the samples. This augmentation in the enzyme activity leads to an increase in the amount of formazan dye formed, which directly correlates to the number of metabolically active cells in the culture. Quantification of the formazan dye produced by metabolically active cells by using a microplate (ELISA) reader at 420-480 nm.

[3] = tested on: Caspase3 in Hela S100; experiment: In-vitro caspase-3 activation assay in Hela S100 extract; type: biochemical; conditions: 100 nM compound, Hela S100, 1 mM dATP; slope versus control (compound 1 = Caspase std.)
Description: Caspase3 in most cell extracts can be activated by the addition of 1 mM dATP through the mitochondria caspase pathway. […] Taking advantage of this feature, we use 100 nM of synthetic Smac mimetic compound to test its ability to eliminate IAPB in the Hela S100 and fully induce Caspase3 activity. The In Vitro Caspase3 assay is carried out at 30° C., incubating 100 nM compounds with 30 ug of Hela S100, 1 mM dATP, 10 uM Caspase3 fluorogenic substrate (Caspase3 Substrate II, Fluorogenic, #235425 from Calbiochem). The readout is caspase-3 activity represented by relative fluorogenic unit, which is recorded kinetically. The slope in linear region of the curve for each compound is calculated.
The ratio of each synthetic compound's slope versus the slope of control reflects in vitro caspase-3 activation ability of compounds.

[4] = tested on: Wap-ras tumors; experiment: In vivo therapy in the WAP-RAS transgenic model; set-up: species or system mice; conditions: mimetic 20 mpk po; Paclitaxel 5 mpk ip
Description: Mimetic and Paclitaxel combination efficacy is also evaluated in the Wap-ras transgenic model.
Mimetics (20 mpk/dosing po) are dissolved in 20% hydroxyl-propyl-betacyclodexatrin (Vehicle I). 0.2 ml of mimetic solution is the oral dosing volume. Paclitaxel (5 mpk/dosing ip) is dissolved in a diluted ethanol/cremophor EL solution (vehicle II) and the i.p. dosing volume for paclitaxel is 0.1 ml.
The mice are weighed, randomized, and ear-marked on Day 0. Mimetic treatment and Vehicle I treatment is begun on Day 1 and continued every 12 hours until Day 21. Paclitaxel and Vehicle II treatments are started on Day 4 and continued daily on Day 5, 6, and 7.

T1 sequence (P98170 1-356 limits assumed): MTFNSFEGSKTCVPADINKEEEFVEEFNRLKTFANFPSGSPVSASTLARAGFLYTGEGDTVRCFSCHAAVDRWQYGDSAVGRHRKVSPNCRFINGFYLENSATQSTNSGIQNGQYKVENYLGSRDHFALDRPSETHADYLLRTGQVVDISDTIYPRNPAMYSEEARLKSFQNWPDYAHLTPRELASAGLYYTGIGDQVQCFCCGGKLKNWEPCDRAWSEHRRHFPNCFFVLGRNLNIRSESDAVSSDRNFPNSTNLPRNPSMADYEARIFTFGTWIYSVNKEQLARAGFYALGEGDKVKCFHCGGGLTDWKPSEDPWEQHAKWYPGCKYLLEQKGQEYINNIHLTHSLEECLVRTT

Row | SMILES | Bir binding [1] [µM] | IC50 [2] [nM] | Caspase % [3] [%] | tumor response to treatment, single agent [4]
1 | CN[C@@H](C)C(=O)N[C@H](C(=O)N1CCC[C@H]1C(=O)N[C@@H]1CCCc2ccccc21)c1ccc(C#CCO[C@H](C)[C@H](NC(=O)[C@H](C)NC)C(=O)N2CCC[C@H]2C(=O)N[C@@H]2CCCc3ccccc32)cc1 [Compound 32] | 0.08 | 5 | 109 | –
2 | CN[C@@H](C)C(=O)N[C@@H](Cc1ccc(C#CC[C@H](NC(=O)[C@H](C)NC)C(=O)N2CCC[C@H]2C(=O)N[C@@H]2CCCc3ccccc32)cc1)C(=O)N1CCC[C@H]1C(=O)NC1CCCc2ccccc21.Cl (stereo partly shown) [Compound 36] | 0.19 | 50 | 98 | –
3 | CC[C@H](NC)C(=O)N[C@H](C(=O)N1CCCC1)c1ccc(C#CCO[C@H](C)[C@H](NC(=O)[C@H](C)NC)C(=O)N2CCC[C@H]2C(=O)N[C@@H]2CCCc3ccccc32)cc1.Cl.Cl [Compound 37] | 0.3 | 200 | 59 | –
4 | CC[C@H](NC)C(=O)N[C@H](C(=O)N1CCC[C@H]1C(=O)N[C@@H]1CCCc2ccccc21)c1ccc(C#CCO[C@H](C)[C@H](NC(=O)[C@H](C)NC)C(=O)N2CCC[C@H]2C(=O)N[C@@H]2CCCc3ccccc32)cc1.Cl.Cl [Compound 39] | 0.18 | 160 | 102 | –
5 | CN[C@@H](C)C(=O)N[C@H](C(=O)N1CCCC1)c1ccc(C#CCO[C@H](C)[C@H](NC(=O)[C@H](C)NC)C(=O)N2CCC[C@H]2C(=O)N[C@@H]2CCCc3ccccc32)cc1.Cl.Cl [Compound 40] | 0.15 | 30 | 85 | –
6 | CN[C@@H](C)C(=O)N[C@@H](CCCc1ccc(C[C@H](NC(=O)[C@H](C)NC)C(=O)N2CCC[C@H]2C(=O)N[C@@H]2CCCc3ccccc32)cc1)C(=O)N1CCC[C@H]1C(=O)N[C@@H]1CCCc2ccccc21.Cl.Cl [Compound 41] | 0.3 | 20 | 99 | –
7 | C=C(C#CCO[C@H](C)[C@H](NC(=O)[C@H](C)NC)C(=O)N1CCC[C@H]1C(=O)N[C@@H]1CCCc2ccccc21)CO[C@H](C)[C@H](NC(=O)[C@H](C)NC)C(=O)N1CCC[C@H]1C(=O)N[C@@H]1CCCc2ccccc21.Cl.Cl [Compound 42] | 0.2 | 240 | 109 | –
8 | CN[C@@H](C)C(=O)N[C@@H](Cc1ccc(OC/C=C\COc2ccc(C[C@H](NC(=O)[C@H](C)NC)C(=O)N3CCCC3C(=O)N[C@@H]3CCCc4ccccc43)cc2)cc1)C(=O)N1CCCC1C(=O)N[C@@H]1CCCc2ccccc21.Cl.Cl (stereo partly shown) [Compound 44] | 0.18 | 3 | 104 | –
9 | CN[C@@H](C)C(=O)N[C@@H](Cc1ccc(OCCCCOc2ccc(C[C@H](NC(=O)[C@H](C)NC)C(=O)N3CCCC3C(=O)N[C@@H]3CCCc4ccccc43)cc2)cc1)C(=O)N1CCCC1C(=O)N[C@@H]1CCCc2ccccc21.Cl.Cl (stereo partly shown) [Compound 45] | 0.15 | 2 | 136 | –
10 | CN[C@@H](C)C(=O)N[C@@H](CCCCNC(=O)c1cccc(C(=O)NCCCC[C@H](NC(=O)[C@H](C)NC)C(=O)N2CCC[C@H]2C(=O)N[C@@H]2CCCc3ccccc32)c1)C(=O)N1CCC[C@H]1C(=O)N[C@@H]1CCCc2ccccc21.Cl.Cl [Compound 47] | 0.19 | 20 | 99 | –
11 | CN[C@@H](C)C(=O)N[C@@H](CCCCNC(=O)NCCCC[C@H](NC(=O)[C@H](C)NC)C(=O)N1CCC[C@H]1C(=O)N[C@@H]1CCCc2ccccc21)C(=O)N1CCC[C@H]1C(=O)N[C@@H]1CCCc2ccccc21.Cl.Cl [Compound 48] | 0.2 | 56 | 103 | –
12 | CN[C@@H](C)C(=O)N[C@@H](CCCCNC(=O)c1ccc(C(=O)NCCCC[C@H](NC(=O)[C@H](C)NC)C(=O)N2CCC[C@H]2C(=O)N[C@@H]2CCCc3ccccc32)cc1)C(=O)N1CCC[C@H]1C(=O)N[C@@H]1CCCc2ccccc21.Cl.Cl [Compound 49] | 0.19 | 20 | 113 | –
13 | CN[C@@H](C)C(=O)N[C@@H](CCCCNC(=O)CC(=O)NCCCC[C@H](NC(=O)[C@H](C)NC)C(=O)N1CCC[C@H]1C(=O)N[C@@H]1CCCc2ccccc21)C(=O)N1CCC[C@H]1C(=O)N[C@@H]1CCCc2ccccc21.Cl.Cl [Compound 50] | 0.2 | 20 | 97 | –
14 | CC(=O)O[C@H]1C(=O)[C@@]2(C)[C@H]([C@H](OC(=O)c3ccccc3)[C@]3(O)C[C@H](OC(=O)[C@H](O)[C@@H](NC(=O)c4ccccc4)c4ccccc4)C(C)=C1C3(C)C)[C@]1(OC(C)=O)CO[C@@H]1C[C@@H]2O [Paclitaxel] | – | – | – | do not respond
